Measured values reported in ChEMBL document CHEMBL1201862, “PubChem BioAssay data set” (2004).
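1) Cells in 96-well plates. 2) Compound, 48 h, 5 concentrations. 3) Linear interpolation between surrounding doses. 4) Unreached endpoint = highest concentration. GI50 = concentration required for 50% inhibition of growth.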 Active and inactive are the calls of the source. Cut-off read from the data, not from the text of the source: active = GI50 up to about 1.1 µM and inactive = higher.

Tests used:
Test in all cases: inhibition of tumour cell growth, NCI panel, 48 h
SNB-19 = system: SNB-19
OVCAR-5 = system: OVCAR-5
M14 = system: M14
CCRF-CEM = system: CCRF-CEM
TK-10 = system: TK-10
NCI-H522 = system: NCI-H522
HOP-62 = system: HOP-62
UACC-257 = system: UACC-257
RPMI-8226 = system: RPMI-8226
SNB-75 = system: SNB-75
SK-MEL-5 = system: SK-MEL-5
CAKI-1 = system: CAKI-1
LOX IMVI = system: LOX IMVI
A549 = system: A549
SW-620 = system: SW-620
EKVX = system: EKVX
HOP-92 = system: HOP-92

Measured: GI50

COC(=O)c1ccc(OCc2ccc3nc(OC)c(OC)nc3c2)cc1
inactive: SNB-19 > 100 µM | OVCAR-5 > 100 µM | M14 > 100 µM | CCRF-CEM > 100 µM | TK-10 > 100 µM | NCI-H522 34 µM | HOP-62 68.4 µM | UACC-257 > 100 µM | RPMI-8226 > 100 µM | SNB-75 > 100 µM | SK-MEL-5 > 100 µM | CAKI-1 > 100 µM | LOX IMVI > 100 µM | A549 > 100 µM | SW-620 > 100 µM | EKVX > 100 µM

CCN(c1ccc(Br)cc1)c1c(Br)c(=O)nc2ccccn12
inactive: SNB-19 > 100 µM | OVCAR-5 > 100 µM | M14 > 100 µM | CCRF-CEM > 100 µM | TK-10 > 100 µM | NCI-H522 62.2 µM | HOP-92 57.3 µM | HOP-62 > 100 µM | RPMI-8226 74.5 µM | SNB-75 > 100 µM | SK-MEL-5 59.8 µM | CAKI-1 93.1 µM | A549 > 100 µM | SW-620 > 100 µM | EKVX 73.3 µM

CN(C(=O)C12C3(C(=O)C(C)(C)C)C4C5(C#N)C3C1(C(=O)C(C)(C)C)C5C42C(=O)C(C)(C)C)C(C)(C)C (stereo not drawn)
inactive: SNB-19 > 50 µM | OVCAR-5 > 50 µM | M14 > 50 µM | CCRF-CEM 16.6 µM | TK-10 > 50 µM | NCI-H522 14.5 µM | HOP-92 30.8 µM | HOP-62 > 50 µM | UACC-257 19.6 µM | SNB-75 8.95 µM | SK-MEL-5 > 50 µM | CAKI-1 33.8 µM | A549 > 50 µM | SW-620 > 50 µM | EKVX 43.3 µM

C=C(CO)CC(O)c1ccccc1 (stereo not drawn)
inactive: SNB-19 > 100 µM | OVCAR-5 > 100 µM | M14 > 100 µM | CCRF-CEM > 100 µM | TK-10 > 100 µM | NCI-H522 > 100 µM | HOP-92 > 100 µM | HOP-62 > 100 µM | RPMI-8226 > 100 µM | SNB-75 > 100 µM | SK-MEL-5 > 100 µM | LOX IMVI > 100 µM | A549 > 100 µM | SW-620 > 100 µM | EKVX > 100 µM

CC(=O)OCCOCNC(=S)N/N=C/c1ccc([N+](=O)[O-])o1
inactive: SNB-19 > 100 µM | OVCAR-5 > 100 µM | M14 36.6 µM | CCRF-CEM 23 µM | TK-10 > 100 µM | NCI-H522 64.4 µM | HOP-62 > 100 µM | UACC-257 34.4 µM | SNB-75 > 100 µM | SK-MEL-5 28.7 µM | LOX IMVI 31.6 µM | A549 63.5 µM | SW-620 34.5 µM | EKVX > 100 µM

O=C1C(c2ccccc2)=C(c2ccccc2)C(c2ccc(CCCCCCc3ccc(C4=C(c5ccccc5)C(=O)C(c5ccccc5)=C4c4ccccc4)cc3)cc2)=C1c1ccccc1
inactive: SNB-19 65 µM | OVCAR-5 > 100 µM | M14 > 100 µM | CCRF-CEM > 100 µM | TK-10 > 100 µM | NCI-H522 > 100 µM | HOP-92 > 100 µM | HOP-62 > 100 µM | UACC-257 > 100 µM | RPMI-8226 > 100 µM | SK-MEL-5 > 100 µM | A549 > 100 µM | SW-620 > 100 µM | EKVX > 100 µM

COc1ccccc1NC(=O)C1=C(C)NC(C)=C(C(=O)Nc2ccccc2OC)C1c1ccc(C(C)C)cc1
inactive: SNB-19 > 100 µM | OVCAR-5 > 100 µM | M14 > 100 µM | TK-10 > 100 µM | HOP-92 82.4 µM | HOP-62 > 100 µM | UACC-257 45.2 µM | RPMI-8226 7.38 µM | SNB-75 27 µM | SK-MEL-5 38.9 µM | CAKI-1 > 100 µM | LOX IMVI > 100 µM | A549 40.1 µM | SW-620 > 100 µM | EKVX 33 µM

COc1ccc(/C=N/NS(=O)(=O)c2ccccc2)cc1
inactive: OVCAR-5 > 100 µM | M14 > 100 µM | CCRF-CEM > 100 µM | TK-10 > 100 µM | HOP-92 > 100 µM | HOP-62 > 100 µM | UACC-257 > 100 µM | RPMI-8226 > 100 µM | SNB-75 > 100 µM | SK-MEL-5 > 100 µM | CAKI-1 > 100 µM | LOX IMVI > 100 µM | A549 > 100 µM | SW-620 > 100 µM | EKVX > 100 µM

Cc1nc(-n2nc(-c3ccccc3)cc2-c2ccccc2)sc1C(=O)CC(=O)C(=O)Nc1ccc(Cl)c(Cl)c1
inactive: SNB-19 79.4 µM | OVCAR-5 53.8 µM | M14 > 100 µM | CCRF-CEM 41.3 µM | TK-10 > 100 µM | NCI-H522 32.6 µM | HOP-62 > 100 µM | UACC-257 44.5 µM | RPMI-8226 41.8 µM | SNB-75 55 µM | CAKI-1 83 µM | LOX IMVI 71 µM | A549 > 100 µM | SW-620 65.9 µM | EKVX 15.1 µM

CC[C@@H]1NC(C(=O)OC)Cc2c1[nH]c1ccccc21 (stereo partly drawn)
inactive: SNB-19 > 100 µM | OVCAR-5 > 100 µM | M14 > 100 µM | CCRF-CEM > 100 µM | TK-10 > 100 µM | HOP-92 > 100 µM | UACC-257 > 100 µM | SNB-75 > 100 µM | SK-MEL-5 > 100 µM | CAKI-1 > 100 µM | LOX IMVI > 100 µM | A549 > 100 µM | SW-620 > 100 µM | EKVX > 100 µM

O=C1c2cc3c(cc2[C@@H]2NC4CCCC14O2)OCO3 (stereo partly drawn)
inactive: SNB-19 > 100 µM | OVCAR-5 > 100 µM | M14 > 100 µM | CCRF-CEM > 100 µM | TK-10 > 100 µM | NCI-H522 > 100 µM | HOP-92 > 100 µM | HOP-62 > 100 µM | UACC-257 > 100 µM | SNB-75 > 100 µM | SK-MEL-5 > 100 µM | CAKI-1 > 100 µM | A549 > 100 µM | SW-620 > 100 µM | EKVX > 100 µM

CN1C(=O)C2C(C1=O)C1(O)c3ccccc3C2(N)c2ccccc21 (stereo not drawn)
inactive: SNB-19 > 100 µM | OVCAR-5 > 100 µM | M14 > 100 µM | CCRF-CEM > 100 µM | TK-10 > 100 µM | HOP-92 > 100 µM | HOP-62 > 100 µM | UACC-257 > 100 µM | SNB-75 > 100 µM | SK-MEL-5 > 100 µM | CAKI-1 > 100 µM | LOX IMVI > 100 µM | A549 > 100 µM | SW-620 > 100 µM | EKVX > 100 µM

CS(=O)(=O)N(N(CCCl)S(=O)(=O)c1ccccc1)S(C)(=O)=O
inactive: SNB-19 67.9 µM | M14 > 100 µM | CCRF-CEM > 100 µM | TK-10 > 100 µM | NCI-H522 > 100 µM | HOP-92 > 100 µM | HOP-62 > 100 µM | UACC-257 > 100 µM | RPMI-8226 > 100 µM | SNB-75 50.8 µM | SK-MEL-5 52.7 µM | CAKI-1 > 100 µM | A549 > 100 µM | SW-620 > 100 µM | EKVX > 100 µM
